The text below walks through data of patent US11214803B2, “Modulators of YAP1 expression” (Ionis Pharmaceuticals, Inc., priority 2019, dated 2022).

In the data set the test system is Yap1 mRNA. Description: Dose-dependent inhibition of human Yap1 in SNU-449 cells (Example 9, RTS36584). It is filed as cell-based. To be noted: free uptake; for % UTC (Yap1 mRNA): approximately 48 hours; for IC50: linear regression on a log/linear plot. As to the method: Modified oligonucleotides described in the studies above were tested at various doses in SNU-449 cells. Cultured SNU-449 cells at a density of 10,000 cells per well were treated using free uptake with modified oligonucleotides diluted to concentrations described in the tables below. After approximately 48 hours, Yap1 mRNA levels were measured as previously described using the Human Yap1 primer-probe set RTS36584. Yap1 mRNA levels were normalized to total RNA content, as measured by RIBOGREEN®. Results are presented in the tables below as percent control of the amount of Yap1 mRNA relative to untreated control cells (% UTC). IC50s were calculated using a linear regression on a log/linear plot of the data in excel.

Strand notation (5' to 3'): a small letter for the sugar, then the base; units joined by * are phosphorothioate-linked, units joined directly phosphodiester-linked; [ ] holds rarer units or linkages, { } end groups; capitals alone tell only the bases. e = 2'-O-(2-methoxyethyl) (MOE); k = constrained ethyl (cEt); [5mC] = 5-methylcytosine; d = 2'-deoxy (DNA); m = 2'-O-methyl Bounds are passed on as bounds.

Consider “1197309 (kG*kT*kA*dA*mU*dA*dT*dT*dG*d[5mC]*dA*dA*dT*k[5mC]*kT*kG; antisense) [compound 1197309]”, for which the IC50 (as a rule, the concentration at which inhibition is half-maximal) was 200 nM. Further, where the note is “31.3 nM”, the “% UTC (Yap1 mRNA)” value came out at 91 % UTC. Moreover, for the setting “125.0 nM”, the “% UTC (Yap1 mRNA)” value was determined as 63 % UTC. The “% UTC (Yap1 mRNA)” value (500.0 nM) is 30 % UTC. Moreover, the “% UTC (Yap1 mRNA)” value (2000.00 nM) worked out at 9 % UTC.
The matching figures for “1198290 (kT*kG*kG*dA*dA*dA*dT*dT*dG*dT*d[5mC]*dT*k[5mC]*eA*kT*eG; antisense) [compound 1198290]”: 100 nM, 60 % UTC, 39 % UTC, 20 % UTC and 10 % UTC.
In the same order, the values of “1197223 (kT*kA*kA*dG*dT*dA*dA*dG*dG*dT*dT*dT*d[5mC]*k[5mC]*k[5mC]*kA; antisense) [compound 1197223]” are 200 nM, 88 % UTC, 55 % UTC, 25 % UTC and 8 % UTC.
The matching figures for “1198799 (k[5mC]*eT*kA*dA*dG*dT*dA*dA*dG*dG*dT*dT*eT*e[5mC]*k[5mC]*k[5mC]; antisense) [compound 1198799]”: 100 nM, 62 % UTC, 35 % UTC, 13 % UTC and 4 % UTC.
Take “1095593 (kT*kG*dA*dG*dG*dT*dA*dT*dA*dA*d[5mC]*eT*eG*eG*kG*k[5mC]; antisense) [compound 1095593]”: the IC50 came out at 100 nM. Further, for the setting “31.3 nM”, the “% UTC (Yap1 mRNA)” value stood at 73 % UTC. Besides, under “125.0 nM”, the “% UTC (Yap1 mRNA)” value is recorded as 44 % UTC. Further, where the note is “500.0 nM”, the “% UTC (Yap1 mRNA)” value was determined as 27 % UTC. Besides, the “% UTC (Yap1 mRNA)” value (2000.00 nM) came out at 10 % UTC.
In the same order, the values of “1197236 (kT*kA*kT*dT*mA*dG*dA*dG*dT*dA*dT*dG*dT*kG*kG*k[5mC]; antisense) [compound 1197236]” are 100 nM, 64 % UTC, 46 % UTC, 25 % UTC and 14 % UTC.
The substance “1198287 (kA*kA*kA*dT*dT*dG*dT*d[5mC]*dT*d[5mC]*dA*dT*kG*e[5mC]*k[5mC]*eT; antisense) [compound 1198287]” gave an IC50 of 300 nM. Moreover, for the setting “31.3 nM”, the “% UTC (Yap1 mRNA)” value amounted to 95 % UTC. The “% UTC (Yap1 mRNA)” value (125.0 nM) was determined as 68 % UTC. For the same substance, the “% UTC (Yap1 mRNA)” value (500.0 nM) is listed as 36 % UTC. Besides, the “% UTC (Yap1 mRNA)” value (2000.00 nM) is 16 % UTC.
In turn, “1198492 (kG*k[5mC]*dT*dT*dT*dG*dG*dA*dA*dG*dA*eT*k[5mC]*eT*kG*eA; antisense) [compound 1198492]” registered an IC50 of 100 nM. Besides, the “% UTC (Yap1 mRNA)” value (31.3 nM) is 67 % UTC. Moreover, the “% UTC (Yap1 mRNA)” value (125.0 nM) worked out at 39 % UTC. Further, the “% UTC (Yap1 mRNA)” value (500.0 nM) worked out at 19 % UTC. The “% UTC (Yap1 mRNA)” value (2000.00 nM) was found to be 10 % UTC.
The matching figures for “1197229 (kG*kG*kA*dA*mA*dT*dT*dG*dT*d[5mC]*dT*d[5mC]*dA*kT*kG*k[5mC]; antisense) [compound 1197229]”: 30 nM, 54 % UTC, 32 % UTC, 16 % UTC and 7 % UTC.
“1200803 (kG*kG*kT*dA*dT*mA*dA*d[5mC]*dT*dG*dG*dG*d[5mC]*kA*kA*kA; antisense) [compound 1200803]” yielded an IC50 of 200 nM. Further, the “% UTC (Yap1 mRNA)” value (31.3 nM) is listed as 72 % UTC. In addition, under “125.0 nM”, the “% UTC (Yap1 mRNA)” value worked out at 52 % UTC. The “% UTC (Yap1 mRNA)” value (500.0 nM) amounted to 34 % UTC. Besides, where the note is “2000.00 nM”, the “% UTC (Yap1 mRNA)” value was 18 % UTC.
As to “1198507 (kT*kT*dA*dT*dA*dT*dG*dG*dT*dT*dT*eT*kG*eT*kG*eT; antisense) [compound 1198507]”, half-maximal inhibition (IC50) was put at 200 nM. The “% UTC (Yap1 mRNA)” value (31.3 nM) is 83 % UTC. Under “125.0 nM”, the “% UTC (Yap1 mRNA)” value is 57 % UTC. Besides, where the note is “500.0 nM”, the “% UTC (Yap1 mRNA)” value turned out to be 29 % UTC. Further, the “% UTC (Yap1 mRNA)” value (2000.00 nM) worked out at 13 % UTC.
The matching figures for “1198543 (kA*kT*kT*dG*dT*d[5mC]*dT*d[5mC]*dA*dT*dG*d[5mC]*k[5mC]*kT*kT*eA; antisense) [compound 1198543]”: 100 nM, 75 % UTC, 42 % UTC, 19 % UTC and 6 % UTC.
Consider “1198918 (kG*k[5mC]*dA*d[5mC]*dT*dT*dT*dT*dA*d[5mC]*dA*kT*dT*kA*dG*kG) [compound 1198918]”, for which the concentration for half-maximal inhibition (IC50) stood at 50 nM. Further, under “31.3 nM”, the “% UTC (Yap1 mRNA)” value is recorded as 60 % UTC. The “% UTC (Yap1 mRNA)” value (125.0 nM) turned out to be 33 % UTC. In addition, the “% UTC (Yap1 mRNA)” value (500.0 nM) was 13 % UTC. In addition, the “% UTC (Yap1 mRNA)” value (2000.00 nM) worked out at 9 % UTC.
The matching figures for “1197178 (kA*kA*kT*dT*dG*dT*d[5mC]*dT*d[5mC]*dA*dT*dG*d[5mC]*k[5mC]*kT*kT; antisense) [compound 1197178]”: 100 nM, 64 % UTC, 36 % UTC, 14 % UTC and 4 % UTC.
In the same order, the values of “1198211 (kA*kT*dT*dA*dG*dA*dG*dT*dA*dT*dG*eT*eG*eG*k[5mC]*kA) [compound 1198211]” are 100 nM, 72 % UTC, 37 % UTC, 23 % UTC and 12 % UTC.
The matching figures for “1198494 (kG*kT*dG*d[5mC]*dT*dT*dT*dG*dG*dA*dA*eG*kA*eT*k[5mC]*eT; antisense) [compound 1198494]”: 100 nM, 59 % UTC, 37 % UTC, 24 % UTC and 13 % UTC.
As for “1200789 (G_{ks}G_{ks}A_{ks}A_{ds}A_{ds}U_{ys}T_{ds}G_{ds}T_{ds}^{m}C_{ds}T_{ds}^{m}C_{ds}A_{ds}T_{ks}G_{ks}^{m}C_{k}; as printed in the source, key not given here) [compound 1200789]”, the 50% inhibitory concentration (IC50) was 50 nM. In addition, the “% UTC (Yap1 mRNA)” value (31.3 nM) was found to be 60 % UTC. Besides, for the setting “125.0 nM”, the “% UTC (Yap1 mRNA)” value was 32 % UTC. The “% UTC (Yap1 mRNA)” value (500.0 nM) came to 15 % UTC. For the same substance, the “% UTC (Yap1 mRNA)” value (2000.00 nM) is 5 % UTC.
In the same order, the values of “1198875 (kA*kA*dA*dG*dT*dG*dT*dA*dT*dG*dT*k[5mC]*eA*kG*eA*kA; antisense) [compound 1198875]” are 40 nM, 61 % UTC, 23 % UTC, 4 % UTC and 1 % UTC.
For the substance “1198611 (kA*kG*kT*dG*dT*dA*dT*dG*dT*d[5mC]*dA*dG*kA*kA*kG*eA; antisense) [compound 1198611]”, the IC50 is below 30 nM. The “% UTC (Yap1 mRNA)” value (31.3 nM) is 37 % UTC. Also, the “% UTC (Yap1 mRNA)” value (125.0 nM) was 19 % UTC. The “% UTC (Yap1 mRNA)” value (500.0 nM) is reported as 4 % UTC. Also, the “% UTC (Yap1 mRNA)” value (2000.00 nM) was found to be 1 % UTC.
“1198961 (kA*kA*dA*dG*dT*dG*dT*dA*dT*dG*dT*k[5mC]*dA*kG*dA*kA; antisense) [compound 1198961]” gave a half-inhibitory concentration (IC50) of 100 nM. For the same substance, the “% UTC (Yap1 mRNA)” value (31.3 nM) is on record as 77 % UTC. Further, the “% UTC (Yap1 mRNA)” value (125.0 nM) worked out at 35 % UTC. Also, under “500.0 nM”, the “% UTC (Yap1 mRNA)” value is reported as 11 % UTC. Moreover, the “% UTC (Yap1 mRNA)” value (2000.00 nM) is on record as 3 % UTC.
“1198664 (kG*k[5mC]*dT*dT*dT*dG*dG*dA*dA*dG*dA*dT*k[5mC]*eT*kG*eA; antisense) [compound 1198664]” yielded an IC50 below 30 nM. Moreover, the “% UTC (Yap1 mRNA)” value (31.3 nM) came out at 52 % UTC. Besides, the “% UTC (Yap1 mRNA)” value (125.0 nM) was 33 % UTC. The “% UTC (Yap1 mRNA)” value (500.0 nM) came out at 14 % UTC. Where the note is “2000.00 nM”, the “% UTC (Yap1 mRNA)” value worked out at 5 % UTC.
The matching figures for “1198502 (kA*kG*dA*dT*dT*dT*dA*dG*dG*dA*dT*eG*k[5mC]*eA*kT*eG; antisense) [compound 1198502]”: 200 nM, 76 % UTC, 50 % UTC, 29 % UTC and 15 % UTC.
In the same order, the values of “1200861 (kT*kT*kA*dA*dA*mG*dT*dG*dT*dA*dT*dG*dT*k[5mC]*kA*kG; antisense) [compound 1200861]” are 100 nM, 74 % UTC, 43 % UTC, 17 % UTC and 4 % UTC.
In the same order, the values of “1198746 (kG*e[5mC]*kA*d[5mC]*dT*dT*dT*dT*dA*d[5mC]*dA*dT*eT*eA*kG*kG) [compound 1198746]” are below 30 nM, 49 % UTC, 24 % UTC, 9 % UTC and 3 % UTC.
Substance “1198900 (kA*kG*dA*dG*dT*dA*dT*dG*dT*dG*dG*k[5mC]*dA*kA*dT*kA; antisense) [compound 1198900]” yielded an IC50 of 100 nM. Further, the “% UTC (Yap1 mRNA)” value (31.3 nM) is reported as 69 % UTC. The “% UTC (Yap1 mRNA)” value (125.0 nM) is 36 % UTC. Further, for the setting “500.0 nM”, the “% UTC (Yap1 mRNA)” value was 18 % UTC. The “% UTC (Yap1 mRNA)” value (2000.00 nM) was determined as 7 % UTC.
